Experimental data reported in patent publication US20160145223A1, “Bicyclyl-Substituted Isothiazoline Compounds” (BASF SE, priority 2013, published 2016).

Assays:
Format in all cases: in vivo
[1] = test system: Green Peach Aphid (Myzus persicae); assay: Green peach aphid artificial diet test, systemic (B.2); conditions: 72 h, adult aphids on treated artificial diet, 3 days, in comparison with untreated controls
Source text: For evaluating control of green peach aphid (Myzus persicae) through systemic means the test unit consisted of 96-well-microtiter plates containing liquid artificial diet under an artificial membrane.
The compounds were formulated using a solution containing 75% v/v water and 25% v/v DMSO. Different concentrations of formulated compounds were pipetted into the aphid diet, using a custom built pipetter, at two replications.
After application, 5-8 adult aphids were placed on the artificial membrane inside the microtiter plate wells. The aphids were then allowed to suck on the treated aphid diet and incubated at about 23±1° C. and about 50±5% relative humidity for 3 days. Aphid mortality and fecundity was then visually assessed.

[2] = test system: Vetch Aphid (Megoura viciae); assay: Vetch aphid broad bean leaf disk test (B.3); conditions: foliar, 120 h, adult aphids on sprayed leaf disks, 5 days, in comparison with untreated controls
Method: For evaluating control of vetch aphid (Megoura viciae) through contact or systemic means the test unit consisted of 24-well-microtiter plates containing broad bean leaf disks.
The compounds were formulated using a solution containing 75% v/v water and 25% v/v DMSO. Different concentrations of formulated compounds were sprayed onto the leaf disks at 2.5 μl, using a custom built micro atomizer, at two replications.
After application, the leaf disks were air-dried and 5-8 adult aphids placed on the leaf disks inside the microtiter plate wells. The aphids were then allowed to suck on the treated leaf disks and incubated at about 23±1° C. and about 50±5% relative humidity for 5 days. Aphid mortality and fecundity was then visually assessed.

[3] = test system: Tobacco Budworm (Heliothis virescens); assay: Tobacco budworm insect diet test (B.4); conditions: 120 h, egg and larval mortality, 5 days, in comparison with untreated controls
Method: For evaluating control of tobacco budworm (Heliothis virescens) the test unit consisted of 96-well-microtiter plates containing an insect diet and 15-25 H. virescens eggs.
The compounds were formulated using a solution containing 75% v/v water and 25% v/v DMSO. Different concentrations of formulated compounds were sprayed onto the insect diet at 10 μl, using a custom built micro atomizer, at two replications.
(§1) After application, microtiter plates were incubated at about 28±1° C. and about 80±5% relative humidity for 5 days. Egg and larval mortality was then visually assessed.

[4] = test system: Boll Weevil (Anthonomus grandis); assay: Boll weevil insect diet test (B.5); conditions: 120 h, egg and larval mortality, 5 days, in comparison with untreated controls
Method: For evaluating control of boll weevil (Anthonomus grandis) the test unit consisted of 96-well-microtiter plates containing an insect diet and 5-10 A. grandis eggs.
(§2) The compounds were formulated using a solution containing 75% v/v water and 25% v/v DMSO. Different concentrations of formulated compounds were sprayed onto the insect diet at 5 μl, using a custom built micro atomizer, at two replications.
After application, microtiter plates were incubated at about 25±1° C. and about 75±5% relative humidity for 5 days. Egg and larval mortality was then visually assessed.

[5] = test system: Mediterranean Fruitfly (Ceratitis capitata); assay: Mediterranean fruitfly insect diet test (B.6); conditions: 120 h, egg and larval mortality, 5 days, in comparison with untreated controls
Method: as §2, with “For evaluating control of Mediterranean fruitfly (Ceratitis capitata) the test unit consisted of microtiter plates containing an insect diet and 50-80 C. capitata eggs. The” for “The”
as §1

[6] = test system: Diamond Back Moth (Plutella xylostella); assay: Diamond back moth leaf-dip test (B.1); conditions: 3rd instar larvae on dipped cabbage leaves, 72 hours after treatment, in comparison with untreated controls
Method: The active compound was dissolved at the desired concentration in a mixture of 1:1 (vol:vol) distilled water:aceteone. Surfactant (Kinetic HV) was added at a rate of 0.01% (vol/vol). The test solution was prepared at the day of use.
Leaves of cabbage were dipped in test solution and air-dried. Treated leaves were placed in petri dishes lined with moist filter paper and inoculated with ten 3rd instar larvae. Mortality was recorded 72 hours after treatment. Feeding damages were also recorded using a scale of 0-100%.

[7] = test system: Orchid Thrips (Dichromothrips corbetti); assay: Orchid thrips floral-immersion test (B.7); conditions: adult thrips on dipped orchid petals, 72 hours after treatment, in comparison with untreated controls
Method: Dichromothrips corbetti adults used for bioassay were obtained from a colony maintained continuously under laboratory conditions. For testing purposes, the test compound is diluted in a 1:1 mixture of acetone:water (vol:vol), plus Kinetic HV at a rate of 0.01% v/v.
Thrips potency of each compound was evaluated by using a floral-immersion technique. All petals of individual, intact orchid flowers were dipped into treatment solution and allowed to dry in Petri dishes. Treated petals were placed into individual re-sealable plastic along with about 20 adult thrips. All test arenas were held under continuous light and a temperature of about 28° C. for duration of the assay. After 3 days, the numbers of live thrips were counted on each petal. The percent mortality was recorded 72 hours after treatment.

[8] = test system: Rice green leafhopper (Nephotettix virescens); assay: Rice green leafhopper rice seedling spray test (B.8); conditions: adults on sprayed rice seedlings, after 72 hours, in comparison with untreated controls
Method: Rice seedlings were cleaned and washed 24 hours before spraying. The active compounds were formulated in 1:1 acetone:water (vol:vol), and 0.01% vol/vol surfactant (Kinetic HV) was added. Potted rice seedlings were sprayed with 5-6 ml test solution, air dried, covered with Mylar cages cages and inoculated with 10 adults. Treated rice plants were kept at about 28-29° C. and relative humidity of about 50-60%. Percent mortality was recorded after 72 hours.

[9] = test system: Red Spider Mite (Tetranychus kanzawai); assay: Red spider mite cowpea spray test (B.9); conditions: mites on sprayed cowpea beans, 72 hours after treatment, in comparison with untreated controls
Method: The active compound was dissolved at the desired concentration in a mixture of 1:1 (vol:vol) distilled water:acetone. Add surfactant (Kinetic HV) was added at a rate of 0.01% (vol/vol). The test solution was prepared at the day of use.
Potted cowpea beans of 4-5 days of age were cleaned with tap water and sprayed with 1-2 ml of the test solution using air driven hand atomizer. The treated plants were allowed to air dry and afterwards inoculated with 30 or more mites by clipping a cassava leaf section from rearing population. Treated plants were placed inside a holding room at about 25-27° C. and about 50-60% relative humidity. Percent mortality was assessed 72 hours after treatment.

O=C(NCc1ncccn1)c1ccc(C2=NSC(c3cc(Cl)c(F)c(Cl)c3)(C(F)(F)F)C2)c2c1CCCC2 (centres unmarked) [Compound 2-6, 8-[5-(3,5-Dichloro-4-fluoro-phenyl)-5-(trifluoromethyl)-4H-isothiazol-3-yl]-N-(pyrimidin-2-ylmethyl)tetralin-5-carboxamide]
≥ 75%: mortality at 2500 ppm [1] | mortality at 2500 ppm [2] | mortality at 2500 ppm [3] | mortality at 2500 ppm [4] | mortality at 2500 ppm [5]

COC(=O)c1ccc(C2=NSC(c3cc(Cl)c(F)c(Cl)c3)(C(F)(F)F)C2)c2c1CCCC2 (centres unmarked) [Compound 2-1, Methyl 8-[5-(3,5-dichloro-4-fluoro-phenyl)-5-(trifluoromethyl)-4H-isothiazol-3-yl]tetralin-5-carboxylate]
≥ 75%: mortality at 2500 ppm [3] | mortality at 2500 ppm [4] | mortality at 2500 ppm [5]

O=C(O)c1ccc(C2=NSC(c3cc(Cl)c(F)c(Cl)c3)(C(F)(F)F)C2)c2c1CCCC2 (centres unmarked) [Compound 2-2, 8-[5-(3,5-Dichloro-4-fluoro-phenyl)-5-(trifluoromethyl)-4H-isothiazol-3-yl]tetralin-5-carboxylic acid]
≥ 75%: mortality at 2500 ppm [3] | mortality at 2500 ppm [4] | mortality at 2500 ppm [5]

O=C(O)c1ccc(C2=NSC(c3cc(Cl)c(F)c(Cl)c3)(C(F)(F)F)C2)c2c1CCC2 (centres unmarked) [Compound 1-1, 7-[5-(3,5-Dichloro-4-fluoro-phenyl)-5-(trifluoromethyl)-4H-isothiazol-3-yl]indane-4-carboxylic acid]
≥ 75%: mortality at 2500 ppm [1] | mortality at 2500 ppm [3] | mortality at 2500 ppm [4]

O=C(NCC(F)(F)F)c1ccc(C2=NSC(c3cc(Cl)c(F)c(Cl)c3)(C(F)(F)F)C2)c2c1CCC2 (centres unmarked) [Compound 1-7, 7-[5-(3,5-Dichloro-4-fluoro-phenyl)-5-(trifluoromethyl)-4H-isothiazol-3-yl]-N-(2,2,2-trifluoroethyl)indane-4-carboxamide]
≥ 75%: mortality at 500 ppm [6] | mortality at 2500 ppm [1] | mortality at 2500 ppm [2] | mortality at 2500 ppm [3] | mortality at 2500 ppm [4] | mortality at 2500 ppm [5] | mortality at 500 ppm [7] | mortality at 500 ppm [8] | mortality at 500 ppm [9]
